Measurements reported in US6800473B1, “Human cathepsin L2 protein, gene encoding said protein and use thereof” (Daiichi Fine Chemical Co., Ltd., priority 1998, dated 2004).
Like-named read-outs stand apart in the source and are kept apart here. Where a SMILES comes first, the peptide text is derived from it. [ ]: non-standard residue; d: D form. The star is where a group is joined. Sta = CC(C)C[C@H](N)[C@@H](O)CC(=O)O; Isovaleryl = CC(C)CC(=O)*

Biological target: T1, recombinant cathepsin L2 (Homo sapiens, UniProt O60911)
T1 construct: extra Met before Leu114 (ATG of primer L2-1; own reading of the primer) (N); made in house; host or cells: E. coli BL21 (DE3)
Type: biochemical
Conditions: FIG. 3(B)
Experimental: The enzyme activity of purified cathepsin L2 produced in E. coli was measured by using 20 μM Z-Phe-Arg-AMC or Z-Arg-Arg-AMC (Bachem) as the substrate and following the procedure described by Barrett and Kirschke (Barrett, A. J., et al., Methods Enzymol., 80: 535-561, 1981) with minor modifications. Assays were performed at 30° C. in 100 mM sodium acetate buffer (pH 4.5) containing 10 mM dithiothreitol (DTT) and 2 mM EDTA. Substrate hydrolysis was monitored in a Cytofluor 2350 fluorometer (Millipore) at excitation and emission wavelengths of 360 and 460 nm, respectively. For inhibition assays, the reaction mixture containing recombinant cathepsin L2 was preincubated with 20 μM E-64 (Sigma) at 30° C. for 15 min, and the remaining activity for recombinant cathepsin L2 was determined using the fluorogenic substrate Z-Phe-Arg-AMC as described herein previously. As a positive control of enzyme assays, recombinant cathepsin O produced in E. coli (Velasco, G., et al., J. Biol. Chem., 269: 27136-27142, 1994) was used.

[1] = inhibitors of metalloproteinases, serine-proteinases, aspartyl-proteinases, concentration not given

T1 sequence (O60911 114-334): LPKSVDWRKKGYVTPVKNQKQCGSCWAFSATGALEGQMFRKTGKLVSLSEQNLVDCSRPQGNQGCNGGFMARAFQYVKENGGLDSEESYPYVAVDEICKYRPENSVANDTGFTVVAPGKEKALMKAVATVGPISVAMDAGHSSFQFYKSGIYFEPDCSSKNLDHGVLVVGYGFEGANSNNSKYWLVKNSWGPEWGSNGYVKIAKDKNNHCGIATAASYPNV

Row | proteolytic activity of cathepsin L2 against Z-Phe-Arg-AMC in the presence of inhibitor (preincubated with 20 μM E-64 at 30° C. for 15 min, 100 mM sodium acetate buffer pH 4.5, 10 mM DTT, 2 mM EDTA) | Compound | proteolytic activity of cathepsin L2 against Z-Phe-Arg-AMC in the presence of inhibitor [1]
1 |  | O=S(=O)(F)Cc1ccccc1 [phenylmethylsulfonyl fluoride] | not abolished
2 |  | CC(C)CC(=O)N[C@H](C(=O)N[C@H](C(=O)N[C@@H](CC(C)C)[C@@H](O)CC(=O)N[C@@H](C)C(=O)N[C@@H](CC(C)C)[C@@H](O)CC(=O)O)C(C)C)C(C)C [pepstatin A] (Isovaleryl-VV[Sta]A[Sta]-OH) | not abolished
3 | abolished | CC(C)C[C@H](NC(=O)[C@H]1O[C@@H]1C(=O)O)C(=O)NCCCCN=C(N)N (relative stereo) [Clone E-64, trans-epoxysuccinyl-L-leucylamido-(4-guanidino)butane] | 
